These results are taken from paper PMC5218480 (PLoS ONE, 2017).

This experiment relates to MV-4-11 cells. The experiment can be described thus: Gene expression microarray analysis (Affymetrix PrimeView) and GSEA. The arrangement: RFU PODN (11730768_x_at) / Fold change /veh PODN (11730768_x_at) / RFU LINC00158 (11744669_a_at) / Fold change /veh LINC00158 (11744669_a_at) / RFU DUSP10 (11751237_a_at) / Fold change /veh DUSP10 (11751237_a_at) / RFU ID3 (11757404_x_at) / Fold change /veh ID3 (11757404_x_at) / RFU PLEKHG5 (11737974_s_at) / Fold change /veh PLEKHG5 (11737974_s_at) / RFU LRRC4B (11730491_at) / Fold change /veh LRRC4B (11730491_at) / RFU GIMAP4 (11747438_a_at) / Fold change /veh GIMAP4 (11747438_a_at) / RFU KRT8 (11758183_x_at) / Fold change /veh KRT8 (11758183_x_at) / RFU CNN1 (11734310_a_at) / Fold change /veh CNN1 (11734310_a_at) / RFU VPS37D (11726825_at) / Fold change /veh VPS37D (11726825_at) / RFU C10orf10 (11716522_x_at) / Fold change /veh C10orf10 (11716522_x_at) / RFU KIR2DL2 /// KIR2DL4 /// KIR2DL5A /// KIR2DL5B /// KIR2DS1 /// KIR2DS2 /// KIR2DS3 /// KIR2DS4 /// KIR3DL3 /// KIR3DL3 /// KIR3DS1 (11738374_at) / Fold change /veh KIR2DL2 /// KIR2DL4 /// KIR2DL5A /// KIR2DL5B /// KIR2DS1 /// KIR2DS2 /// KIR2DS3 /// KIR2DS4 /// KIR3DL3 /// KIR3DL3 /// KIR3DS1 (11738374_at) / RFU C1QL1 (11718748_at) / Fold change /veh C1QL1 (11718748_at) / RFU TMPRSS4 (11747572_a_at) / Fold change /veh TMPRSS4 (11747572_a_at) / RFU HAMP (11756126_x_at) / Fold change /veh HAMP (11756126_x_at) / RFU RNFT2 (11725882_a_at) / Fold change /veh RNFT2 (11725882_a_at) / RFU NR4A2 (11747474_a_at) / Fold change /veh NR4A2 (11747474_a_at) / RFU ABCC12 (11746883_a_at) / Fold change /veh ABCC12 (11746883_a_at) / RFU TMEM136 (11760407_x_at) / Fold change /veh TMEM136 (11760407_x_at) / RFU CLDN22 /// WWC2 (11732394_at) / Fold change /veh CLDN22 /// WWC2 (11732394_at) / RFU HLA-DPB1 (11760878_x_at) / Fold change /veh HLA-DPB1 (11760878_x_at) / RFU SPINT1 (11716480_a_at) / Fold change /veh SPINT1 (11716480_a_at) / RFU GAP43 (11754022_s_at) / Fold change /veh GAP43 (11754022_s_at) / RFU A4GNT (11735810_at) / Fold change /veh A4GNT (11735810_at) / RFU PRB3 (11715151_x_at) / Fold change /veh PRB3 (11715151_x_at) / RFU TUBB4B (11761932_at) / Fold change /veh TUBB4B (11761932_at) / RFU CAPN14 (11732068_a_at) / Fold change /veh CAPN14 (11732068_a_at) / RFU TMCC2 (11721928_a_at) / Fold change /veh TMCC2 (11721928_a_at) / RFU IRGQ (11745062_a_at) / Fold change /veh IRGQ (11745062_a_at) / RFU FAM174B (11720279_a_at) / Fold change /veh FAM174B (11720279_a_at) / RFU TMPRSS4 (11748680_a_at) / Fold change /veh TMPRSS4 (11748680_a_at) / RFU FAM212B (11763350_a_at) / Fold change /veh FAM212B (11763350_a_at) / RFU PLEKHG5 (11743358_a_at) / Fold change /veh PLEKHG5 (11743358_a_at) / RFU ZSCAN30 (11745921_a_at) / Fold change /veh ZSCAN30 (11745921_a_at) / RFU CMKLR1 (11741424_a_at) / Fold change /veh CMKLR1 (11741424_a_at) / RFU LOC101060620 /// MAPK8IP1 (11723275_at) / Fold change /veh LOC101060620 /// MAPK8IP1 (11723275_at) / RFU SPTSSB (11747773_x_at) / Fold change /veh SPTSSB (11747773_x_at) / RFU PRSS12 (11739890_at) / Fold change /veh PRSS12 (11739890_at) / RFU BIN1 (11741810_x_at) / Fold change /veh BIN1 (11741810_x_at) / RFU WNT11 (11732464_a_at) / Fold change /veh WNT11 (11732464_a_at) / RFU C10orf10 (11716521_a_at) / Fold change /veh C10orf10 (11716521_a_at) / RFU C5orf56 (11738089_at) / Fold change /veh C5orf56 (11738089_at) / RFU CYB561 (11721691_x_at) / Fold change /veh CYB561 (11721691_x_at) / RFU ANKRD19P (11752326_a_at) / Fold change /veh ANKRD19P (11752326_a_at) / RFU OR2T12 /// OR2T33 /// OR2T8 (11738714_s_at) / Fold change /veh OR2T12 /// OR2T33 /// OR2T8 (11738714_s_at) / RFU VCAN (11748164_a_at) / Fold change /veh VCAN (11748164_a_at) / RFU JSRP1 (11732532_at) / Fold change /veh JSRP1 (11732532_at) / RFU KRTAP10-11 (11738290_x_at) / Fold change /veh KRTAP10-11 (11738290_x_at) / RFU MYO3A (11730013_a_at) / Fold change /veh MYO3A (11730013_a_at) / RFU EBF3 (11725865_a_at) / Fold change /veh EBF3 (11725865_a_at) / RFU CAMK2N1 (11719241_x_at) / Fold change /veh CAMK2N1 (11719241_x_at) / RFU C5orf56 (11738088_a_at) / Fold change /veh C5orf56 (11738088_a_at) / RFU OLFML3 (11715873_a_at) / Fold change /veh OLFML3 (11715873_a_at) / RFU LOC100653217 /// NTM (11731650_a_at) / Fold change /veh LOC100653217 /// NTM (11731650_a_at) / RFU MAPK11 (11762145_a_at) / Fold change /veh MAPK11 (11762145_a_at) / RFU FIZ1 (11724087_x_at) / Fold change /veh FIZ1 (11724087_x_at) / RFU OASL (11726364_x_at) / Fold change /veh OASL (11726364_x_at) / RFU SOX15 (11748057_x_at) / Fold change /veh SOX15 (11748057_x_at) / RFU CD79A (11719716_a_at) / Fold change /veh CD79A (11719716_a_at) / RFU HIST1H1D (11736915_at) / Fold change /veh HIST1H1D (11736915_at) / RFU CASKIN2 (11723855_a_at) / Fold change /veh CASKIN2 (11723855_a_at) / RFU LOC730098 (11760151_x_at) / Fold change /veh LOC730098 (11760151_x_at) / RFU OR4N2 (11742367_at) / Fold change /veh OR4N2 (11742367_at) / RFU PRRT2 (11749266_a_at) / Fold change /veh PRRT2 (11749266_a_at) / RFU SNX32 (11753110_a_at) / Fold change /veh SNX32 (11753110_a_at) / RFU CDHR5 (11726645_a_at) / Fold change /veh CDHR5 (11726645_a_at) / RFU RCAN1 (11760418_a_at) / Fold change /veh RCAN1 (11760418_a_at) / RFU FAM167A (11723789_a_at) / Fold change /veh FAM167A (11723789_a_at) / RFU FAM26E (11764081_at) / Fold change /veh FAM26E (11764081_at) / RFU ISYNA1 (11749810_s_at) / Fold change /veh ISYNA1 (11749810_s_at) / RFU ACY1 (11761880_at) / Fold change /veh ACY1 (11761880_at) / RFU 11764098_at / Fold change /veh 11764098_at / RFU SAMD14 (11745864_x_at) / Fold change /veh SAMD14 (11745864_x_at) / RFU NPB (11741838_a_at) / Fold change /veh NPB (11741838_a_at) / RFU TMPRSS6 (11731388_a_at) / Fold change /veh TMPRSS6 (11731388_a_at) / RFU KRTAP10-2 (11738614_at) / Fold change /veh KRTAP10-2 (11738614_at) / RFU ARHGAP8 /// PRR5-ARHGAP8 (11727945_x_at) / Fold change /veh ARHGAP8 /// PRR5-ARHGAP8 (11727945_x_at) / RFU KRTAP5-7 /// NADSYN1 (11734609_at) / Fold change /veh KRTAP5-7 /// NADSYN1 (11734609_at) / RFU RASL12 (11751679_a_at) / Fold change /veh RASL12 (11751679_a_at) / RFU CDKN2B (11736163_a_at) / Fold change /veh CDKN2B (11736163_a_at) / RFU PRF1 (11729649_at) / Fold change /veh PRF1 (11729649_at) / RFU, ZNF638 /// ZNF638-IT1 / Fold change vs veh, ZNF638 /// ZNF638-IT1 / RFU, PANK3 / Fold change vs veh, PANK3 / RFU, SH3YL1 / Fold change vs veh, SH3YL1 / RFU, ZEB2 / Fold change vs veh, ZEB2 / RFU, NRIP1 / Fold change vs veh, NRIP1 / RFU, PTTG1IP / Fold change vs veh, PTTG1IP / RFU, CAPN2 / Fold change vs veh, CAPN2 / RFU, MED14 / Fold change vs veh, MED14 / RFU, SNORA58 / Fold change vs veh, SNORA58 / RFU, C1orf63 / Fold change vs veh, C1orf63 / RFU, LRRFIP1 / Fold change vs veh, LRRFIP1 / RFU, NDUFAF7 / Fold change vs veh, NDUFAF7 / RFU, SLC12A2 / Fold change vs veh, SLC12A2 / RFU, IBTK / Fold change vs veh, IBTK / RFU, ESF1 / Fold change vs veh, ESF1 / Fold change vs veh, TMEM50B / RFU, TAOK1 / Fold change vs veh, TAOK1 / RFU, ACBD3 / Fold change vs veh, ACBD3 / RFU, TMA16 / Fold change vs veh, TMA16 / RFU, RWDD3 / Fold change vs veh, RWDD3 / RFU, BCAT1 / Fold change vs veh, BCAT1 / RFU, EDEM3 / Fold change vs veh, EDEM3 / RFU, TMEM33 / Fold change vs veh, TMEM33 / RFU, WDR75 / Fold change vs veh, WDR75 / RFU, AHCTF1 / Fold change vs veh, AHCTF1 / RFU, TFRC / Fold change vs veh, TFRC / RFU, ZDHHC17 / Fold change vs veh, ZDHHC17 / RFU, NOM1 / Fold change vs veh, NOM1 / RFU, ARL8B / Fold change vs veh, ARL8B / RFU, ZBTB11 / Fold change vs veh, ZBTB11 / RFU, TAMM41 / Fold change vs veh, TAMM41 / RFU, KIAA1704 /// LOC100996395 / Fold change vs veh, KIAA1704 /// LOC100996395 / RFU, ING1 / Fold change vs veh, ING1 / RFU, TRMT61B / Fold change vs veh, TRMT61B / RFU, FUBP3 / Fold change vs veh, FUBP3 / RFU, TP53 / Fold change vs veh, TP53 / RFU, TNKS2 / Fold change vs veh, TNKS2 / RFU, ZFP14 / Fold change vs veh, ZFP14 / RFU, ACTR2 / Fold change vs veh, ACTR2 / RFU, PPP3R1 / Fold change vs veh, PPP3R1 / RFU, PIK3R1 / Fold change vs veh, PIK3R1 / RFU, HNRNPA1 / Fold change vs veh, HNRNPA1 / RFU, RNF170 / Fold change vs veh, RNF170 / RFU, ZNF28 / Fold change vs veh, ZNF28 / RFU, RNGTT / Fold change vs veh, RNGTT / RFU, OGT / Fold change vs veh, OGT / RFU, BRD1 / Fold change vs veh, BRD1 / RFU, MARS / Fold change vs veh, MARS / RFU, ZNF655 / Fold change vs veh, ZNF655 / RFU, FAHD1 / Fold change vs veh, FAHD1 / RFU, BDP1 / Fold change vs veh, BDP1 / RFU, LRRCC1 / Fold change vs veh, LRRCC1 / RFU, ARID1A / Fold change vs veh, ARID1A / RFU, ZNF146 / Fold change vs veh, ZNF146 / RFU, ZNF330 / Fold change vs veh, ZNF330 / RFU, GPN3 / Fold change vs veh, GPN3 / RFU, C9orf123 / Fold change vs veh, C9orf123 / RFU, N4BP2L2 / Fold change vs veh, N4BP2L2 / RFU, ARFIP1 / Fold change vs veh, ARFIP1 / RFU, FAM179B / Fold change vs veh, FAM179B / RFU, BCL10 / Fold change vs veh, BCL10 / RFU, UHRF1BP1L / Fold change vs veh, UHRF1BP1L / RFU, BET1 / Fold change vs veh, BET1 / RFU, CNOT2 / Fold change vs veh, CNOT2 / RFU, ZNF268 / Fold change vs veh, ZNF268 / Fold change vs veh, ZNF507 / RFU, DGCR2 / Fold change vs veh, DGCR2 / RFU, WDSUB1 / Fold change vs veh, WDSUB1 / Fold change vs veh, HSP90B1 /// MIR3652 / RFU, ADSS / Fold change vs veh, ADSS / RFU, GK / Fold change vs veh, GK / RFU, ZNF148 / Fold change vs veh, ZNF148 / RFU, TAF9 / Fold change vs veh, TAF9 / RFU, SLC1A5 / Fold change vs veh, SLC1A5 / RFU, SLMO2 / Fold change vs veh, SLMO2 / RFU, ABCC4 / Fold change vs veh, ABCC4 / RFU, LOC101060439 /// RAP1B / Fold change vs veh, LOC101060439 /// RAP1B / RFU, RFX7 / Fold change vs veh, RFX7 / RFU, GTPBP10 / Fold change vs veh, GTPBP10 / RFU, CNEP1R1 / Fold change vs veh, CNEP1R1 / RFU, BIVM-ERCC5 /// ERCC5 / Fold change vs veh, BIVM-ERCC5 /// ERCC5 / RFU, ILF3 / Fold change vs veh, ILF3 / RFU 11762660_at / Fold change /veh 11762660_at / RFU VCAN (11757783_s_at) / Fold change /veh VCAN (11757783_s_at) / RFU DDX43 (11728927_at) / Fold change /veh DDX43 (11728927_at) / RFU KRT8 (11758188_x_at) / Fold change /veh KRT8 (11758188_x_at) / RFU NKD1 (11759106_at) / Fold change /veh NKD1 (11759106_at) / RFU SRD5A1 (11742802_a_at) / Fold change /veh SRD5A1 (11742802_a_at) / RFU TPSAB1 /// TPSB2 (11721975_s_at) / Fold change /veh TPSAB1 /// TPSB2 (11721975_s_at) / RFU GSTM3 (11746129_a_at) / Fold change /veh GSTM3 (11746129_a_at) / RFU IL23R (11737362_x_at) / Fold change /veh IL23R (11737362_x_at) / RFU TMEM51 (11727254_a_at) / Fold change /veh TMEM51 (11727254_a_at) / RFU PIWIL2 (11732686_x_at) / Fold change /veh PIWIL2 (11732686_x_at) / RFU ORM1 (11744905_x_at) / Fold change /veh ORM1 (11744905_x_at) / RFU CCDC152 (11743942_at) / Fold change /veh CCDC152 (11743942_at) / RFU ECM1 (11717891_a_at) / Fold change /veh ECM1 (11717891_a_at) / RFU IL23R (11748794_a_at) / Fold change /veh IL23R (11748794_a_at) / RFU TNFAIP8L3 (11732012_x_at) / Fold change /veh TNFAIP8L3 (11732012_x_at) / RFU MBOAT4 (11741988_at) / Fold change /veh MBOAT4 (11741988_at) / RFU 11764193_at / Fold change /veh 11764193_at / RFU TMEM53 (11763286_at) / Fold change /veh TMEM53 (11763286_at) / RFU MAGEB2 (11727129_at) / Fold change /veh MAGEB2 (11727129_at) / RFU TMEM200A (11744735_a_at) / Fold change /veh TMEM200A (11744735_a_at) / RFU CCDC152 (11751479_a_at) / Fold change /veh CCDC152 (11751479_a_at) / RFU FAM211A (11726209_a_at) / Fold change /veh FAM211A (11726209_a_at) / RFU RGS16 (11746705_a_at) / Fold change /veh RGS16 (11746705_a_at) / RFU VCAN (11755009_s_at) / Fold change /veh VCAN (11755009_s_at) / RFU RHOB (11743442_s_at) / Fold change /veh RHOB (11743442_s_at) / RFU RGS16 (11720943_a_at) / Fold change /veh RGS16 (11720943_a_at) / RFU RGS16 (11720944_at) / Fold change /veh RGS16 (11720944_at) / RFU, VPS4B / Fold change vs veh, VPS4B / RFU, CREB1 / Fold change vs veh, CREB1 / RFU, DNAJC13 / Fold change vs veh, DNAJC13 / RFU, GNAQ / Fold change vs veh, GNAQ / RFU, CDK5R1 / Fold change vs veh, CDK5R1 / RFU, ZRANB3 / Fold change vs veh, ZRANB3 / RFU, CUL4A / Fold change vs veh, CUL4A / RFU, CCNY / Fold change vs veh, CCNY / RFU, UFL1 / Fold change vs veh, UFL1 / RFU, COG3 / Fold change vs veh, COG3 / RFU, DIAPH2 / Fold change vs veh, DIAPH2 / RFU, SKA2 / Fold change vs veh, SKA2 / RFU, AFF3 / Fold change vs veh, AFF3 / RFU, LMF1 / Fold change vs veh, LMF1 / RFU, IPO11 / Fold change vs veh, IPO11 / RFU, DFFB / Fold change vs veh, DFFB / RFU, FOXP1 / Fold change vs veh, FOXP1 / RFU, CARD8 / Fold change vs veh, CARD8 / RFU, STRN3 / Fold change vs veh, STRN3 / RFU, ADK / Fold change vs veh, ADK / RFU, RASSF2 / Fold change vs veh, RASSF2 / RFU, WIPF1 / Fold change vs veh, WIPF1 / RFU, LARP1B / Fold change vs veh, LARP1B / RFU, RASA1 / Fold change vs veh, RASA1 / RFU, RB1 / Fold change vs veh, RB1 / RFU, PPFIA1 / Fold change vs veh, PPFIA1 / RFU, MAT2A / Fold change vs veh, MAT2A / RFU, CCT5 / Fold change vs veh, CCT5 / RFU, WDR92 / Fold change vs veh, WDR92 / RFU, CUX1 / Fold change vs veh, CUX1 / RFU, TTC7A / Fold change vs veh, TTC7A / RFU, TMEM135 / Fold change vs veh, TMEM135 / RFU, DEPTOR / Fold change vs veh, DEPTOR / RFU, CPM / Fold change vs veh, CPM / RFU, DNAJB6 / Fold change vs veh, DNAJB6 / RFU, CACNA2D3 / Fold change vs veh, CACNA2D3 / RFU, DTX4 / Fold change vs veh, DTX4 / RFU, TFCP2 / Fold change vs veh, TFCP2 / RFU, GMCL1 /// GMCL1P1 / Fold change vs veh, GMCL1 /// GMCL1P1 / RFU, AEBP2 / Fold change vs veh, AEBP2 / RFU, SNHG1 /// SNORD22 /// SNORD25 /// SNORD26 /// SNORD27 /// SNORD28 /// SNORD29 /// SNORD31 / Fold change vs veh, SNHG1 /// SNORD22 /// SNORD25 /// SNORD26 /// SNORD27 /// SNORD28 /// SNORD29 /// SNORD31 / Fold change (Aza/veh), C12orf56 (ProbeSet 11735607_a_at) / Fold change (ACY-1035/veh), C12orf56 (ProbeSet 11735607_a_at) / Fold change (Aza/veh), FGFR1OP (ProbeSet 11751329_s_at) / Fold change (ACY-1035/veh), FGFR1OP (ProbeSet 11751329_s_at) / Fold change (Aza/veh), VPS36 (ProbeSet 11739960_a_at) / Fold change (ACY-1035/veh), VPS36 (ProbeSet 11739960_a_at) / RFU SYPL1 (11715823_x_at) / Fold change /veh SYPL1 (11715823_x_at) / RFU IGFBP7 (11715501_s_at) / Fold change /veh IGFBP7 (11715501_s_at) / RFU REEP3 (11722064_at) / Fold change /veh REEP3 (11722064_at) / RFU IGLL1 (11728026_x_at) / Fold change /veh IGLL1 (11728026_x_at): dose or concentration left out as unconfirmed. The conditions noted are these: MV-4-11 cells, 48 hours. The experiment is classed as cell-based, human.

On to `Nc1ncn([C@@H]2O[C@H](CO)[C@@H](O)[C@H]2O)c(=O)n1` [azacitidine], for which the “Fold change /veh IGLL1 (11728026_x_at)” value is on record as 0.66.
